Experimental data published in patent US8623903B2, “Indolecarboxylic acid derivative having PGD2 receptor antagonistic activity” (Shionogi & Co., Ltd., priority 2005, dated 2014).

Experiments:
[1] = target: T1, DP receptor (Homo sapiens (Human), UniProt Q13258); test: cAMP assay with washed platelets (DP inhibitory activity in vitro); assay type: cell-based; conditions: 100 nM of PGD2, cAMP by HTRF, read-out: IC50 (50% DP-inhibitory concentration in the cAMP assay)
Method: 1) Preparation of Platelet and a Method of cAMP Assay
30 mL of peripheral blood was collected from a healthy volunteer using a syringe containing one ninth amount of 3.8% sodium citrate. After being centrifuged at 180 g for 10 minutes at room temperature, a supernatant was collected and used as Platelet Rich Plasma (PRP). The resulting PRP was washed with wash buffer and centrifuged three times (Washed Platelet: WP) and platelets were counted by a microcell counter. WP was added to a plate in amount of 1.5×10^8/assay and the plate was treated with 3-isobutyl-1-methylxanthin (IBMX; 0.5 mM) for 5 minutes. A reaction was initiated by adding 100 nM of PGD2 5 min after an addition of a test compound. The reaction was terminated with an addition of 1N hydrochloric acid after 2 minutes and the cells were destructed using 12% triton X-100. An amount of cAMP in the supernatant was assayed by Homogeneous Trangient Fluorescence (HTRF)

[2] = target: T1, DP receptor; test: Receptor binding assay, [3H]-PGD2, platelet membrane
Method: 2) Receptor Binding Assay
A prepared WP was homogenated and a membrane fraction was collected with high-speed centrifugation. A compound of the present invention was added to the plate and [^3H]-PGD2 was also added. A platelet membrane, a protein concentration is 2 mg/mL, was added and mixed in the plate, and placed on ice for 2 hours. The reaction solution was transferred to a low protein-adsorptive filter and washed with a wash solution eight times using a cell harvester. After the final washing, water was removed sufficiently, and scintillator was added. DP inhibitory activity was investigated by measuring [^3H] by using Micro Beta.

[3] = system: OVA asthma model of rat; test: OVA asthma model of rat: increased hyperresponsive airway (acetylcholine); assay type: in vivo, Brown Norway (BN) Rats; conditions: BN rats, 10 mg/kg p.o. once a day for three days, vs control group, AUC of acetylcholine response curve
Method: (§1) Brown Norway (BN) Rats were sensitized by i.p. administration of 0.1 mg/mL of ovalbumin (OVA) and 1 mg of aluminum hydroxide gel. A solution of 1% OVA was aerosolized by ultrasonic nebulizer (NE-U17) and the rats were subjected to inhalation exposure of the aerosol for 30 minutes in an exposing chamber 12, 19, 26 and 33 days after the sensitization. One hour before the 4th exposure of the antigen, compounds of the present invention were administered in a dose of 10 mg/kg p.o. once a day for three days consecutively. In a control group, 0.5% of methyl cellulose was administered in place of the compound of the present invention.
Under pentobarbital anesthesia (80 mg/kg, i.p.), acetylcholine (3.9, 7.8, 15.6, 31.3, 62.5, 125, 250 and 500 μg/kg) was injected to jugular vein of the rats successively from a lower dose at intervals of 5 minutes three days after the fourth exposure to the antigen, and immediate contractile reaction of airways (an increase of insufflation pressure) was measured by a modified method of Konnzett & Rössler. Inhibition rate of increased hyperresponsive airway against the control group was calculated based on area under the curve (AUC) obtained from concentration-response curve of acetylcholine.

[4] = system: OVA asthma model of rat; test: OVA asthma model of rat: infiltration of inflammatory cells in bronchoalveolar washings; assay type: in vivo, Brown Norway (BN) Rats; conditions: BN rats, 10 mg/kg p.o. once a day for three days, total cell number in bronchoalveolar washings vs control group
Method: as §1
(§2) After the measurement of increased hyperresponsive airway was completed, bronchoalveoli of the rats were washed with 5 mL of saline three times. Total cell number in the washings was counted by a hemacytometer under light microscope, and inhibition rates of infiltration of inflammatory cells against the control group were calculated. Further, mucin in the airway lavage fluid was measured by ELISA method using jacalin, a mucin-binding lectin, and the inhibition rates of mucus-secretion against the control group were calculated.

[5] = system: OVA asthma model of rat; test: OVA asthma model of rat: mucus-secretion (mucin in airway lavage fluid, ELISA); assay type: in vivo, Brown Norway (BN) Rats; conditions: BN rats, 10 mg/kg p.o. once a day for three days, mucin in airway lavage fluid by ELISA vs control group
Method: as §1, §2

T1 sequence (Q13258 whole entry): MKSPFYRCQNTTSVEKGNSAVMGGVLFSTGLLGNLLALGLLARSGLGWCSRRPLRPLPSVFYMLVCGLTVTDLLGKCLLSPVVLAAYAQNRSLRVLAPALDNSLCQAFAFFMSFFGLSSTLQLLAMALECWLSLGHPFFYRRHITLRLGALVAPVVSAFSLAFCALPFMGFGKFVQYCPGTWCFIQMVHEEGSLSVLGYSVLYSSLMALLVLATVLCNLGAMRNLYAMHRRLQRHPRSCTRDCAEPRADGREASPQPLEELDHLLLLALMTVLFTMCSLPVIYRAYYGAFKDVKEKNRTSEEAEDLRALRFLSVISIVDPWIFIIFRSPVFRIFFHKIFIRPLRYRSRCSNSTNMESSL

SMILES | IC50 [1] [nM] | Ki [2] [nM] | inhibition rate (%) airway hyperresponsiveness [3] [%] | inhibition rate (%) infiltration of inflammatory cells [4] [%] | inhibition rate (%) mucus-secretion [5] [%]
CC(C)Oc1ccc(S(=O)(=O)N2CCC(n3cc(CC(=O)O)c4ccc(F)cc43)CC2)cc1 [Compound I-16] | 1.3 | – | – | – | –
CC(C)Oc1ccc(S(=O)(=O)N2CCC(n3cc(CC(=O)O)c4cc(Cl)ccc43)C2)cc1 (centres unmarked) [Compound I-7] | 1.8 | – | – | – | –
CC(C)Oc1ccc(S(=O)(=O)N2CC[C@@H](n3cc(CC(=O)O)c4ccccc43)C2)cc1 [Compound I-20] | 3.8 | – | – | – | –
CC(C)Oc1ccc(S(=O)(=O)N2CCC(n3cc(CC(=O)O)c4ccc(Cl)cc43)CC2)cc1 [Compound I-9] | 2 | – | – | – | –
CC(C)Oc1ccc(S(=O)(=O)N2CCC(n3cc(CC(=O)O)c4ccccc43)CC2)cc1 [Compound I-1] | 4.7 | 7.7 | 43 | 58 | 52
CCOc1ccc(S(=O)(=O)N2CCC(n3cc(CC(=O)O)c4cc(Cl)ccc43)CC2)cc1 [Compound I-6] | 4.8 | – | – | – | –
CC(C)Oc1ccc(S(=O)(=O)N2CCC(n3cc(CC(=O)O)c4cc(F)ccc43)CC2)cc1 [Compound I-14] | 2.2 | 5.6 | – | – | –
CC(C)Oc1ccc(S(=O)(=O)N2CC[C@@H](n3cc(CC(=O)O)c4ccc(Cl)cc43)C2)cc1 [Compound I-30] | 1.2 | 5.4 | – | – | –
CC(C)Oc1ccc(S(=O)(=O)N2CC[C@@H](n3cc(C(=O)O)c4ccc(Cl)cc43)C2)cc1 [Compound I-32] | 7 | – | – | – | –
CC(C)Oc1ccc(S(=O)(=O)N2CCC(n3cc(C(=O)O)c4ccccc43)CC2)cc1 [Compound I-23] | 1.6 | 1.4 | 46 | 79 | 72
CCOc1ccc(S(=O)(=O)N2CCC(n3cc(CC(=O)O)c4ccc(Cl)cc43)CC2)cc1 [Compound I-10] | 6.9 | – | – | – | –
CCOc1ccc(S(=O)(=O)N2CCC(n3cc(CC(=O)O)c4cc(Cl)ccc43)C2)cc1 (centres unmarked) [Compound I-8] | 4.9 | – | – | – | –
CC(C)Oc1ccc(S(=O)(=O)N2CCC(n3cc(CC(=O)O)c4ccc(Cl)cc43)C2)cc1 (centres unmarked) [Compound I-11] | 4.9 | – | 77 | 56 | 30
CC(C)Oc1ccc(S(=O)(=O)N2CC[C@H](n3nc(CC(=O)O)c4cc(Cl)ccc43)C2)cc1 [Compound I-21] | 3 | – | – | – | –
CC(C)Oc1ccc(S(=O)(=O)N2CCC(n3cc(CC(=O)O)c4cc(Cl)ccc43)CC2)cc1 [Compound I-5] | 4.1 | 22 | – | – | –
CCOc1ccc(S(=O)(=O)N2CCC(n3cc(CC(=O)O)c4ccc(Cl)cc43)C2)cc1 (centres unmarked) [Compound I-12] | 6.9 | – | – | – | –
CC(C)Oc1ccc(S(=O)(=O)N2CC[C@@H](n3cc(CC(=O)O)c4ccc(F)cc43)C2)cc1 [Compound I-31] | 2.9 | 4.3 | – | – | –
